Columns and labels:
MAGE-A3 TCR (TCR-1) [1] = experiment: Kinetic binding of TCR to peptides (Octet BLI); conditions: Table 3; Ala mutants of Peptide-5 and controls
Description: BLI based kinetic binding of TCR to peptides was measured using a ForteBio Octet RED96 instrument. Biotinylated peptides were first directly captured on streptavidin biosensors. Sensors were quenched using excess biocytin and then baselined in buffer. A dilution series of TCR was made and associated onto the peptide loaded biosensor. Association and dissociation signals were monitored in real-time. Signals were fit to a 1:1 binding model in order to derive binding constants, kon and koff, as well as KD.

MAGE-A3 TCR (TCR-1) [2] = experiment: Equilibrium binding of TCR to peptides (ELISA)
Description: Peptide binding was also examined in an ELISA format. Biotinylated peptides were captured on neutravidin coated plates. TCR was then prepared in a half-log dilution series starting from 10 uM and titrated onto the peptide captured plates. […] The concentration of TCR required to observe half maximal binding signal (EC50) was then calculated using Graphpad Prism.

| Compound | Octet BLI Binds TCR (MAGE-A3 TCR (TCR-1) [1]) | EC50 (MAGE-A3 TCR (TCR-1) [2]; Table 3) | EC50 (MAGE-A3 TCR (TCR-1) [2]; Table 2, TCR-1 titrated on captured peptide) |
| --- | --- | --- | --- |
| CC(C)[C@H](NC(=O)CNC(=O)CN)C(=O)N[C@@H](C)C(=O)N[C@H]1CSSC[C@@H](C(=O)N[C@@H](Cc2c[nH]c3ccccc23)C(=O)N[C@H](C(=O)NCC(=O)NCC(=O)NCC(=O)NCC(=O)N[C@@H](CO)C(=O)NCCOCCOCCOCCOCCC(=O)N[C@@H](CCCCNC(=O)CCCC[C@@H]2SC[C@@H]3NC(=O)N[C@@H]32)C(N)=O)[C@@H](C)O)NC(=O)[C@H](Cc2ccccc2)NC(=O)[C@H](C)NC(=O)[C@H](CCC(=O)O)NC(=O)[C@H](CC(=O)O)NC(=O)[C@H](Cc2ccc(O)cc2)NC(=O)[C@H](C(C)C)NC(=O)[C@H](CC(=O)O)NC(=O)[C@H](CCCCN)NC1=O [Peptide-22] | No | – | – |
| CC(C)[C@H](NC(=O)CNC(=O)CN)C(=O)N[C@@H](CO)C(=O)N[C@H]1CSSC[C@@H](C(=O)N[C@@H](Cc2c[nH]c3ccccc23)C(=O)N[C@H](C(=O)NCC(=O)NCC(=O)NCC(=O)NCC(=O)N[C@@H](CO)C(=O)NCCOCCOCCOCCOCCC(=O)N[C@@H](CCCCNC(=O)CCCC[C@@H]2SC[C@@H]3NC(=O)N[C@@H]32)C(N)=O)[C@@H](C)O)NC(=O)[C@H](Cc2ccccc2)NC(=O)[C@H](C)NC(=O)[C@H](CCC(=O)O)NC(=O)[C@H](CC(=O)O)NC(=O)[C@H](Cc2ccc(O)cc2)NC(=O)[C@H](C(C)C)NC(=O)[C@H](C)NC(=O)[C@H](CCCCN)NC1=O [Peptide-25] | Weak | – | – |
| CC(C)[C@H](NC(=O)CNC(=O)CN)C(=O)N[C@@H](CO)C(=O)N[C@H]1CSSC[C@@H](C(=O)N[C@@H](Cc2c[nH]c3ccccc23)C(=O)N[C@H](C(=O)NCC(=O)NCC(=O)NCC(=O)NCC(=O)N[C@@H](CO)C(=O)NCCOCCOCCOCCOCCC(=O)N[C@@H](CCCCNC(=O)CCCC[C@@H]2SC[C@@H]3NC(=O)N[C@@H]32)C(N)=O)[C@@H](C)O)NC(=O)[C@H](Cc2ccccc2)NC(=O)[C@H](C)NC(=O)[C@H](C)NC(=O)[C@H](CC(=O)O)NC(=O)[C@H](Cc2ccc(O)cc2)NC(=O)[C@H](C(C)C)NC(=O)[C@H](CC(=O)O)NC(=O)[C@H](CCCCN)NC1=O [Peptide-29] | No | – | – |

Now from value to compound:

| Octet BLI Binds TCR (MAGE-A3 TCR (TCR-1) [1]) | EC50 (MAGE-A3 TCR (TCR-1) [2]; Table 3) | EC50 (MAGE-A3 TCR (TCR-1) [2]; Table 2, TCR-1 titrated on captured peptide) | Compound |
| --- | --- | --- | --- |
| No | – | – | CC(C)[C@H](NC(=O)CNC(=O)CN)C(=O)N[C@@H](CO)C(=O)N[C@H]1CSSC[C@@H](C(=O)N[C@@H](Cc2c[nH]c3ccccc23)C(=O)N[C@H](C(=O)NCC(=O)NCC(=O)NCC(=O)NCC(=O)N[C@@H](CO)C(=O)NCCOCCOCCOCCOCCC(=O)N[C@@H](CCCCNC(=O)CCCC[C@@H]2SC[C@@H]3NC(=O)N[C@@H]32)C(N)=O)[C@@H](C)O)NC(=O)[C@H](Cc2ccccc2)NC(=O)[C@H](C)NC(=O)[C@H](CCC(=O)O)NC(=O)[C@H](CC(=O)O)NC(=O)[C@H](Cc2ccc(O)cc2)NC(=O)[C@H](C)NC(=O)[C@H](CC(=O)O)NC(=O)[C@H](CCCCN)NC1=O [Peptide-26] |
| No | > 10 µM | – | CC(C)[C@H](NC(=O)CNC(=O)CN)C(=O)N[C@@H](CO)C(=O)N[C@H]1CSSC[C@@H](C(=O)N[C@@H](Cc2c[nH]c3ccccc23)C(=O)N[C@H](C(=O)NCC(=O)NCC(=O)NCC(=O)NCC(=O)N[C@@H](CO)C(=O)NCCOCCOCCOCCOCCC(=O)N[C@@H](CCCCNC(=O)CCCC[C@@H]2SC[C@@H]3NC(=O)N[C@@H]32)C(N)=O)[C@@H](C)O)NC(=O)[C@H](Cc2ccccc2)NC(=O)[C@H](C)NC(=O)[C@H](CCC(=O)O)NC(=O)[C@H](CC(=O)O)NC(=O)[C@H](C)NC(=O)[C@H](C(C)C)NC(=O)[C@H](CC(=O)O)NC(=O)[C@H](CCCCN)NC1=O [Peptide-27] |
| No | > 10 µM | – | CC(C)[C@H](NC(=O)CNC(=O)CN)C(=O)N[C@@H](CO)C(=O)N[C@H]1CSSC[C@@H](C(=O)N[C@@H](Cc2c[nH]c3ccccc23)C(=O)N[C@H](C(=O)NCC(=O)NCC(=O)NCC(=O)NCC(=O)N[C@@H](CO)C(=O)NCCOCCOCCOCCOCCC(=O)N[C@@H](CCCCNC(=O)CCCC[C@@H]2SC[C@@H]3NC(=O)N[C@@H]32)C(N)=O)[C@@H](C)O)NC(=O)[C@H](C)NC(=O)[C@H](C)NC(=O)[C@H](CCC(=O)O)NC(=O)[C@H](CC(=O)O)NC(=O)[C@H](Cc2ccc(O)cc2)NC(=O)[C@H](C(C)C)NC(=O)[C@H](CC(=O)O)NC(=O)[C@H](CCCCN)NC1=O [Peptide-30] |
| – | – | 0.05 µM | GGNQCWEVYDQEFCSL [Peptide-9] |

— patent publication US20230220105A1, “TUMOR ACTIVATED T CELL ENGAGERS AND METHODS OF USE THEREOF” (Janux Therapeutics, Inc., priority 2019, published 2023)
